From patent US11566057B2, “Long-acting co-agonists of the glucagon and GLP-1 receptors” (Merck Sharp & Dohme Corp., priority 2017, dated 2023) come the findings set out here.

pEC50: −log10 of the molar value. Like-named read-outs stand apart in the source and are kept apart here. Numbered stars: 1 amine (or outer) side, 2 acyl side, 3 side chain; on linkers, the order of the positions; unused ones are H or OH. Square brackets hold non-standard residues; d marks the D form. Side chains are listed from the residue outwards. Peptide text beside a SMILES is read from it. * marks the point of attachment. C20 diacid = O=C(O)CCCCCCCCCCCCCCCCCCC(=O)*; Phe(4-CH2NH2) = NCc1ccc(C[C@H](N)C(=O)O)cc1; C18 diacid = O=C(O)CCCCCCCCCCCCCCCCC(=O)*; C16 diacid = O=C(O)CCCCCCCCCCCCCCC(=O)*; γGlu = O=C(O)[C@H](CCC(=O)[*:2])N[*:1]; Met(O2) = CS(=O)(=O)CC[C@H](N)C(=O)O; αMeD = C[C@](N)(CC(=O)O)C(=O)O; αMeS = C[C@](N)(CO)C(=O)O; AEEA = NCCOCCOCC(=O)O; Aib = CC(C)(N)C(=O)O

By pEC50 is commonly meant the EC50 on a negative log10 scale, so that one unit is a factor of ten.

One assay addresses T1, human GCGR (Homo sapiens, UniProt P47871).
T1 construct: expressed in transfected cells; growth medium holds Blasticidin and Hygromycin
The assay can be described thus: cAMP activity assay at the Glucagon receptor (GCGR). As to conditions: for hGCGR/hGLP1R (hTone): ratio of GCGR EC50 to GLP1R EC50. It counts as cell-based. The method in brief:
(§1)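 Peptides serially diluted from DMSO (10 points) and added to frozen-stock cells bearing human GLP1R (10,000 cells/well) or GCGR (30,000 cells/well), 1 h at RT, dark. EC50 by four-parameter logistic fit of HitHunter cAMPXS luminescence, read following overnight RT incubation.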

The target in another assay is T2, human GLP1R (Homo sapiens, UniProt P43220).
T2 construct: expressed in transfected cells; growth medium holds Blasticidin and Hygromycin
The assay can be described thus: cAMP activity assay at the GLP-1 receptor (GLP1R). It counts as cell-based. The method in brief:
as §1

Setting [1] is: cells expressing human GCGR, cAMP production, buffer with or without 20% human serum (not stated which), read-out: GCGR EC50 human.
Setting [2] is: summary statement: EC50 at each of the glucagon and GLP-1 receptors, read-out: EC50 at the glucagon receptor.
Where [3] appears, read: summary statement: EC50 at each of the glucagon and GLP-1 receptors, read-out: EC50 at the GLP-1 receptor.
The mark [4] stands for this setting: cells expressing human GLP1R, cAMP production, buffer with or without 20% human serum (not stated which), read-out: GLP1R EC50 human.

T1 sequence (P47871 26-477): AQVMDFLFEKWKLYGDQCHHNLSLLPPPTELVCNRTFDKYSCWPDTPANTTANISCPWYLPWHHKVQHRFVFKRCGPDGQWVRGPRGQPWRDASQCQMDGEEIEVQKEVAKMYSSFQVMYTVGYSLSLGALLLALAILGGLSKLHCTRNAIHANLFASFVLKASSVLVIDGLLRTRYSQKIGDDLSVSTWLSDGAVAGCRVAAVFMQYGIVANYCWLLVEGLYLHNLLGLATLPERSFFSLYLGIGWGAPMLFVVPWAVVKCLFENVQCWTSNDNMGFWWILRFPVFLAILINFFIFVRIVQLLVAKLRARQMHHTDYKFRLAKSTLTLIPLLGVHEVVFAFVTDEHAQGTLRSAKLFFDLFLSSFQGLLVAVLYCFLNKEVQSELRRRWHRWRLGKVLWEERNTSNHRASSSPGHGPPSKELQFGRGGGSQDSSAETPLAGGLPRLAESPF
T2 sequence (P43220 24-463): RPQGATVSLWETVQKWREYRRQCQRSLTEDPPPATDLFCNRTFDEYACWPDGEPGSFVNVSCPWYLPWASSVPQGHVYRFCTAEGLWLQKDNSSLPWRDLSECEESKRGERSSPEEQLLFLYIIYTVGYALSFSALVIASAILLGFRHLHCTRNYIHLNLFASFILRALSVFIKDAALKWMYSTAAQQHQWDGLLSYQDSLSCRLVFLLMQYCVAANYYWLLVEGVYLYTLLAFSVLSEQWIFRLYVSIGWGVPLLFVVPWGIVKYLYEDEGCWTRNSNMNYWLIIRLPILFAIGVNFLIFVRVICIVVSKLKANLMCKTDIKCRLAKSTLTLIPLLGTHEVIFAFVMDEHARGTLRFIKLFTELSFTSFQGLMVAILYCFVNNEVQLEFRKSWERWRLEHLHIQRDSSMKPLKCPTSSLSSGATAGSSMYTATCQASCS

Take `CC(C)C[C@H](NC(=O)[C@H](Cc1ccc(O)cc1)NC(=O)[C@H](CCCCN)NC(=O)[C@H](CO)NC(=O)[C@H](Cc1ccc(O)cc1)NC(=O)[C@H](CC(=O)O)NC(=O)[C@H](CO)NC(=O)[C@@H](NC(=O)[C@H](Cc1ccccc1)NC(=O)[C@@H](NC(=O)CNC(=O)[C@H](CCC(N)=O)NC(=O)[C@](C)(CO)NC(=O)[C@@H](N)Cc1c[nH]cn1)[C@@H](C)O)[C@@H](C)O)C(=O)N[C@@H](CC(=O)O)C(=O)NC(C)(C)C(=O)N[C@@H](CCCNC(=N)N)C(=O)N[C@@H](C)C(=O)N[C@@H](C)C(=O)N[C@@H](CCCCNC(=O)COCCOCCNC(=O)COCCOCCNC(=O)CC[C@H](NC(=O)CCCCCCCCCCCCCCC(=O)O)C(=O)O)C(=O)N[C@@H](CC(=O)O)C(=O)N[C@@H](Cc1ccccc1)C(=O)N[C@H](C(=O)N[C@@H](CCC(N)=O)C(=O)N[C@@H](Cc1c[nH]c2ccccc12)C(=O)N[C@@H](CC(C)C)C(=O)N[C@@H](CCS(C)(=O)=O)C(=O)N[C@@](C)(CC(=O)O)C(=O)N[C@H](C(N)=O)[C@@H](C)O)C(C)C` [TP618] (H-H[αMeS]QGTFTSDYSKYLD[Aib]RAAK([AEEA-AEEA-γGlu-C16 diacid])DFVQWL[Met(O2)][αMeD]T-NH2): the pEC50 is 9.44 on human GCGR (setting [1]), over 8.30 on human GCGR (setting [2]) and over 8.30 on human GLP1R (setting [3]). The “hGCGR/hGLP1R (hTone)” value on human GCGR is 0.1.
Regarding `CC(C)C[C@H](NC(=O)[C@H](Cc1ccc(O)cc1)NC(=O)[C@H](CCCCN)NC(=O)[C@H](CO)NC(=O)[C@H](Cc1ccc(O)cc1)NC(=O)[C@H](CC(=O)O)NC(=O)[C@H](CO)NC(=O)[C@H](CC(C)C)NC(=O)[C@H](Cc1ccccc1)NC(=O)[C@@H](NC(=O)CNC(=O)[C@H](CCC(N)=O)NC(=O)C(C)(C)NC(=O)[C@@H](N)Cc1c[nH]cn1)[C@@H](C)O)C(=O)N[C@@H](CC(=O)O)C(=O)N[C@@H](C)C(=O)N[C@@H](CCCNC(=N)N)C(=O)N[C@@H](C)C(=O)N[C@@H](C)C(=O)N[C@@H](CCCCNC(=O)COCCOCCNC(=O)COCCOCCNC(=O)CC[C@H](NC(=O)CCCCCCCCCCCCCCCCC(=O)O)C(=O)O)C(=O)N[C@@H](CC(=O)O)C(=O)N[C@@H](Cc1ccccc1)C(=O)N[C@H](C(=O)N[C@@H](CCC(N)=O)C(=O)N[C@@H](Cc1c[nH]c2ccccc12)C(=O)N[C@@H](CC(C)C)C(=O)N[C@@H](CCS(C)(=O)=O)C(=O)N[C@@H](CC(=O)O)C(=O)N[C@H](C(N)=O)[C@@H](C)O)C(C)C` [TP596] (H-H[Aib]QGTFLSDYSKYLDARAAK([AEEA-AEEA-γGlu-C18 diacid])DFVQWL[Met(O2)]DT-NH2; N-terminus assumed), the pEC50 on human GCGR (setting [1]) is 9.46; at human GCGR (setting [2]), over 8.30; at human GLP1R (setting [4]), under 7.70; on human GLP1R (setting [3]), over 8.30. Moreover, the “hGCGR/hGLP1R (hTone)” value on human GCGR was 0.2.
`CC(C)C[C@H](NC(=O)[C@H](Cc1c[nH]c2ccccc12)NC(=O)[C@H](CCCCNC(=O)COCCOCCNC(=O)COCCOCCNC(=O)CC[C@H](NC(=O)CCCCCCCCCCCCCCCCCCC(=O)O)C(=O)O)NC(=O)[C@@H](NC(=O)[C@H](Cc1ccccc1)NC(=O)[C@H](CC(=O)O)NC(=O)[C@H](CCC(N)=O)NC(=O)[C@H](C)NC(=O)[C@H](C)NC(=O)[C@H](CCCNC(=N)N)NC(=O)C(C)(C)NC(=O)[C@H](CC(=O)O)NC(=O)[C@H](CC(C)C)NC(=O)[C@H](Cc1ccc(O)cc1)NC(=O)[C@H](CCCCN)NC(=O)[C@H](CO)NC(=O)[C@H](Cc1ccc(O)cc1)NC(=O)[C@H](CC(=O)O)NC(=O)[C@H](CO)NC(=O)[C@@H](NC(=O)[C@H](Cc1ccccc1)NC(=O)[C@@H](NC(=O)CNC(=O)[C@H](CCC(N)=O)NC(=O)C(C)(C)NC(=O)[C@@H](N)Cc1c[nH]cn1)[C@@H](C)O)[C@@H](C)O)C(C)C)C(=O)N[C@@H](CCS(C)(=O)=O)C(=O)N[C@@H](CC(=O)O)C(=O)N[C@H](C(N)=O)[C@@H](C)O` [TP576] (H-H[Aib]QGTFTSDYSKYLD[Aib]RAAQDFVK([AEEA-AEEA-γGlu-C20 diacid])WL[Met(O2)]DT-NH2; N-terminus assumed): the pEC50 on human GCGR (setting [1]) was 8.84; at human GCGR (setting [2]) it was over 8.30; at human GLP1R (setting [3]), over 8.30. In addition, the “hGCGR/hGLP1R (hTone)” value at human GCGR turned out to be 0.8.
Regarding `CC(C)C[C@H](NC(=O)[C@H](Cc1ccc(O)cc1)NC(=O)[C@H](CCCCN)NC(=O)[C@H](CO)NC(=O)[C@H](Cc1ccc(O)cc1)NC(=O)[C@H](CC(=O)O)NC(=O)[C@H](CO)NC(=O)[C@@H](NC(=O)[C@H](Cc1ccccc1)NC(=O)[C@@H](NC(=O)CNC(=O)[C@H](CCC(N)=O)NC(=O)C(C)(C)NC(=O)[C@@H](N)Cc1c[nH]cn1)[C@@H](C)O)[C@@H](C)O)C(=O)N[C@@H](CC(=O)O)C(=O)N[C@@H](C)C(=O)N[C@@H](CCCNC(=N)N)C(=O)N[C@@H](C)C(=O)N[C@@H](C)C(=O)N[C@@H](CCC(N)=O)C(=O)N[C@@H](CC(=O)O)C(=O)N[C@@H](Cc1ccccc1)C(=O)N[C@H](C(=O)N[C@@H](CCC(N)=O)C(=O)N[C@@H](Cc1c[nH]c2ccccc12)C(=O)N[C@@H](CC(C)C)C(=O)N[C@@H](CCS(C)(=O)=O)C(=O)N[C@@H](Cc1ccc(CNC(=O)COCCOCCNC(=O)COCCOCCNC(=O)CC[C@H](NC(=O)CCCCCCCCCCCCCCCCCCC(=O)O)C(=O)O)cc1)C(=O)N[C@H](C(N)=O)[C@@H](C)O)C(C)C` [TP605] (H-H[Aib]QGTFTSDYSKYLDARAAQDFVQWL[Met(O2)][Phe(4-CH2NH2)]([AEEA-AEEA-γGlu-C20 diacid])T-NH2), the pEC50 at human GCGR (setting [2]) and on human GLP1R (setting [3]) was over 8.30 throughout.
As for `CC(C)C[C@H](NC(=O)[C@H](Cc1ccc(O)cc1)NC(=O)[C@H](CCCCN)NC(=O)[C@H](CO)NC(=O)[C@H](Cc1ccc(O)cc1)NC(=O)[C@H](CC(=O)O)NC(=O)[C@H](CO)NC(=O)[C@@H](NC(=O)[C@H](Cc1ccccc1)NC(=O)[C@@H](NC(=O)CNC(=O)[C@H](CCC(N)=O)NC(=O)C(C)(C)NC(=O)[C@@H](N)Cc1c[nH]cn1)[C@@H](C)O)[C@@H](C)O)C(=O)N[C@@H](CC(=O)O)C(=O)N[C@@H](C)C(=O)N[C@@H](CCCNC(=N)N)C(=O)N[C@@H](C)C(=O)N[C@@H](C)C(=O)N[C@@H](CCC(N)=O)C(=O)N[C@@H](CC(=O)O)C(=O)N[C@@H](Cc1ccccc1)C(=O)N[C@H](C(=O)N[C@@H](CCCCNC(=O)COCCOCCNC(=O)CC[C@H](NC(=O)CCCCCCCCCCCCCCCCC(=O)O)C(=O)O)C(=O)N[C@@H](Cc1c[nH]c2ccccc12)C(=O)N[C@@H](CC(C)C)C(=O)N[C@@H](CCS(C)(=O)=O)C(=O)N[C@@H](CC(=O)O)C(=O)N[C@H](C(N)=O)[C@@H](C)O)C(C)C` [TP637] (H-H[Aib]QGTFTSDYSKYLDARAAQDFVK([AEEA-γGlu-C18 diacid])WL[Met(O2)]DT-NH2; N-terminus assumed), the “hGCGR/hGLP1R (hTone)” value at human GCGR amounted to 1.8. Also, the pEC50 at human GCGR (setting [2]) and at human GLP1R (setting [3]) was over 8.30 in each case.
As for `CC(C)C[C@H](NC(=O)[C@H](Cc1ccc(O)cc1)NC(=O)[C@H](CCCCN)NC(=O)[C@H](CO)NC(=O)[C@H](Cc1ccc(O)cc1)NC(=O)[C@H](CC(=O)O)NC(=O)[C@H](CO)NC(=O)[C@@H](NC(=O)[C@H](Cc1ccccc1)NC(=O)[C@@H](NC(=O)CNC(=O)[C@H](CCC(N)=O)NC(=O)C(C)(C)NC(=O)[C@@H](N)Cc1c[nH]cn1)[C@@H](C)O)[C@@H](C)O)C(=O)N[C@@H](CCC(=O)O)C(=O)N[C@@H](C)C(=O)N[C@@H](CCCNC(=N)N)C(=O)N[C@@H](C)C(=O)N[C@@H](C)C(=O)N[C@@H](CCCCNC(=O)COCCOCCNC(=O)COCCOCCNC(=O)CC[C@H](NC(=O)CCCCCCCCCCCCCCCCC(=O)O)C(=O)O)C(=O)N[C@@H](CC(=O)O)C(=O)N[C@@H](Cc1ccccc1)C(=O)N[C@H](C(=O)N[C@@H](CCC(N)=O)C(=O)N[C@@H](Cc1c[nH]c2ccccc12)C(=O)N[C@@H](CC(C)C)C(=O)N[C@@H](CCS(C)(=O)=O)C(=O)N[C@@H](CC(=O)O)C(=O)N[C@H](C(N)=O)[C@@H](C)O)C(C)C` [TP674] (H-H[Aib]QGTFTSDYSKYLEARAAK([AEEA-AEEA-γGlu-C18 diacid])DFVQWL[Met(O2)]DT-NH2; N-terminus assumed), the “hGCGR/hGLP1R (hTone)” value at human GCGR is given as 2.4. Moreover, the values for the pEC50 at human GCGR (setting [2]), on human GLP1R (setting [4]) and on human GLP1R (setting [3]) were over 8.30, 9.35 and over 8.30, respectively.
In the case of `CC(C)C[C@H](NC(=O)[C@H](Cc1ccc(O)cc1)NC(=O)[C@H](CCCCN)NC(=O)[C@H](CO)NC(=O)[C@H](Cc1ccc(O)cc1)NC(=O)[C@H](CC(=O)O)NC(=O)[C@H](CO)NC(=O)[C@@H](NC(=O)[C@H](Cc1ccccc1)NC(=O)[C@@H](NC(=O)CNC(=O)[C@H](CCC(N)=O)NC(=O)C(C)(C)NC(=O)[C@@H](N)Cc1c[nH]cn1)[C@@H](C)O)[C@@H](C)O)C(=O)N[C@@H](CC(=O)O)C(=O)N[C@@H](C)C(=O)N[C@@H](CCCNC(=N)N)C(=O)N[C@@H](C)C(=O)N[C@@H](C)C(=O)N[C@@H](CCCCNC(=O)COCCOCCNC(=O)COCCOCCNC(=O)COCCOCCNC(=O)CC[C@H](NC(=O)CCCCCCCCCCCCCCCCC(=O)O)C(=O)O)C(=O)N[C@@H](CC(=O)O)C(=O)N[C@@H](Cc1ccccc1)C(=O)N[C@H](C(=O)N[C@@H](CCC(N)=O)C(=O)N[C@@H](Cc1c[nH]c2ccccc12)C(=O)N[C@@H](CC(C)C)C(=O)N[C@@H](CCS(C)(=O)=O)C(=O)N[C@@H](CC(=O)O)C(=O)N[C@H](C(N)=O)[C@@H](C)O)C(C)C` [TP676] (H-H[Aib]QGTFTSDYSKYLDARAAK([AEEA-AEEA-AEEA-γGlu-C18 diacid])DFVQWL[Met(O2)]DT-NH2; N-terminus assumed), on human GCGR, the “hGCGR/hGLP1R (hTone)” value turned out to be 3.1. The pEC50 was over 8.30 on human GCGR (setting [2]), 9.59 at human GLP1R (setting [4]) and over 8.30 at human GLP1R (setting [3]).
